The record followed here is patent publication US20160318844A1, “PROSTACYCLIN COMPOUNDS, COMPOSITIONS AND METHODS OF USE THEREOF” (Insmed Incorporated, priority 2015, published 2016).

Data set [1] is described as follows: Treprostinil alkyl ester conversion to treprostinil in monkey lung tissue homogenate. The settings on record: 37° C. Format: in vitro ADME. As for the experimental part:
Here, data were calculated based on fit of exponential increase to the maximum (experiments performed in duplicate). The results of this study are provided below in Table 2A and FIG. 37. […] In this experiment, treprostinil alkyl esters were incubated for 4 hours at a final concentration of 200 nM in 1 mL of tissue homogenate prepared in water and normalized to 10 mg/mL of protein.
C12-TR was incubated for 4 hours at a final concentration of 200 nM in 1 mL of tissue homogenate prepared in water and normalized to 10 mg/mL of protein. Both FIG. 37 experiments (eft and right graphs) were performed in duplicate and the lines represent nonlinear exponential regression assuming 1 phase decay. Table 2A. Rate of treprostinil alkyl ester conversion in the presence of rat, dog or monkey lung tissue homogenate.

Another data set deals with CHO-K1 cells. As to the kind of experiment: CHO-K1 cell proliferation assay (Presto Blue). The conditions noted are these: for Effect on cell proliferation, CHO-K1 Cells: detectable cell inhibition: Table 9, unformulated alkyl esters, (0.195 μM-25 μM), 48 hour incubation. As for the experimental part: CHO-K1 cells were harvested when the cell monolayer was 50-90% confluent (use passage 4-11). Media was aspirated out of the flask, and cells were rinsed with 2 mL of F12 media. Next, 1 mL of pre-warmed (37° C.) 0.25% trypsin-EDTA (Life Technologies, Cat#: 25300054) was added, and cells were dislodged from the flask by tapping it on the side. Complete growth media (F12 (Life Technologies, Cat #: 31765092)+10% FBS (Hyclone, Cat #: SH30071.03)+1× Pen-Strep (Life Technologies, cat #15140-122) was then added at a volume of 10 mL. Cells were centrifuged at 250×g for 5 minutes at room temperature, and the media was aspirated. The cell pellet was resuspended in 10 mL complete growth media. Cell number was determined using a hemacytometer. Cells were then seeded at 2000 cells per well of a 96-well plate in 100 μL of complete growth media. The plate was incubated overnight at 37° C. and 5% CO2 in a water-jacketed incubator.
The next day, 80 μL of fresh complete media was added to each well, and CHO-K1 cells were challenged with treprostinil compound and composition treatments. The working solutions were prepared at 10× concentration, and following 2 fold serial dilutions, 20 μL aliquots were added per well to arrive at a final 1× concentration. Following a 48 hour incubation at 37° C. and 5% CO2 in a water-jacketed incubator, the inhibitory effect on cell proliferation was determined. Plates were analyzed using 20 μL of Presto Blue reagent (Life Technologies, cat #: A13262) per well. The reagent was mixed, and plates were incubated for 1 hour at 37° C. and 5% CO2 in a waterjacketed incubator. Plates were read using either a CytoFluor Series 4000 (PerSeptive BioSystems) or Synergy Neo microplate reader (BioTek) with emission λ: 590 nm and excitation λ: 560 nm. […]
CHO-K1 cells were challenged with treprostinil alkyl esters, i.e., TR compounds of Formula (A), having the following R2 groups: […]
C2, C3, C4, C5, C6, C8, C10 or C12 straight chain alkyl, at dosages ranging from 0.098 μM to 25 μM. Following a 48 hour incubation period, the inhibitory effect on cell proliferation was determined.
Following a 72 hour incubation period, the inhibitory effect on cell proliferation was determined. Following a 48 hour incubation period, the inhibitory effect on cell proliferation was determined. […]

Each structure is given as a SMILES string.

As for `CCCCCCCCOC(=O)COc1cccc2c1C[C@H]1C[C@@H](O)[C@H](CC[C@@H](O)CCCCC)[C@H]1C2` [Compound C8-TR, treprostinil octyl ester], the “Rate of treprostinil alkyl ester conversion” value in data set [1] is on record as 17.3 nmOL/h * g of protein. Also, the “Effect on cell proliferation, CHO-K1 Cells: detectable cell inhibition” value with CHO-K1 cells turned out to be 25 µM. Moreover, the “inhibition of CHO-K1 cell proliferation” value in the data set on CHO-K1 cells (unformulated alkyl esters, highest concentration, 48 hour) is “showed inhibition of cell proliferation”.

With `CCCCCCCCCCCCOC(=O)COc1cccc2c1C[C@H]1C[C@@H](O)[C@H](CC[C@@H](O)CCCCC)[C@H]1C2` [Compound C12-TR, dodecyl-treprostinil], the “Rate of treprostinil alkyl ester conversion” value in data set [1] is given as 0.6 nmOL/h * g of protein. The “Effect on cell proliferation, CHO-K1 Cells: detectable cell inhibition” value with CHO-K1 cells was “No detectable cell inhibition”.
